According to US20080255121A1, “Combination Drug for Treating Autoimmune Disease” (DAINIPPON SUMITOMO PHARMA CO., LTD., priority 2004, published 2008):

What was measured:
[1] = target: T1, CaMKIIα derived from rat (Rattus norvegicus, UniProt P11275); test: Examination of CaMKII inhibitory activity (1), phosphorylation of Autocamtide-2; format: biochemical
T1 construct: purchased Santa Cruz, Inc
Protocol: Test substances were dissolved in DMSO and diluted to various concentrations with a buffer solution (50 mM Tris-HCl: pH 7.5, 10 mM MgCl2, 1 mM Dithiothreitol (DTT)) (all of them are available from Nacalai Tesque, Inc.) for CaMKII reaction. CaMKIIα (final concentration 0.75 μg/ml) (Santa Cruz, Inc.) derived from rat was mixed with Autocamtide-2® (40 μM) (CALBIOCHEM Company) dissolved in CaMKII reaction buffer solution in the presence of the test substance and with CaMKII activation buffer solution (1 mMCaCl2, 1 μM calmodulin) (Nacalai Tesque, Inc.) and the reaction was started by further adding ATP (50 μM) (Nacalai Tesque, Inc.). The reaction was performed at 30° C. for five minutes and then SDS-PAGE sample buffer solution was added and the reaction was terminated by boiling for five minutes. Proteins in the reaction mixture were separated by 15% SDS-PAGE and blotted onto a PVDF membrane. Phosphorus taken in by Autocamtide-2 was reacted with an anti-phosphorylated serine/threonine antibody (Santa Cruz, Inc.) and quantified by ECL system (Amersham, Inc.) and NIH Image (downloadable from http://rsb.info.nih.gov/nih-image/).

[2] = test system: J774A.1 cells; test: IL-6 production when macrophages were stimulated with LPS; format: cell-based, mouse; conditions: Compound (I) 1 to 30 μM, KN-93 1 to 3 μM; 24 hours; FIG. 2
Protocol: Effects of Compound (I) and KN-93 on IL-6 production when macrophages were stimulated with lipopolysaccharide (LPS) were evaluated.
J774A.1 cells (mouse macrophage cell line) were cultured in Dulbecco's Modified Eagle Medium (DMEM: GIBCO, Inc.) containing 10% fetal bovine serum and subjected to the experiment. The cells were disseminated in 96-well plate in a ratio of 5×10^4 cells/well and a DMEM medium containing the test substance and a DMEM medium containing LPS as a stimulant were added and incubated for 24 hours. The concentration was adjusted so that the final concentrations of the test substances and stimulants were 1 to 30 μM for Compound (I), 1 to 3 μM for KN-93 and 1 μg/ml for LPS. The plate was centrifuged after incubation and the supernatant was collected with micropipette. The concentration of IL-6 in the supernatant was quantified by Enzyme-linked Immunosorbent Assay (ELISA) method. The quantitative method was carried out in accordance with the instructions attached to the kit (MOUSE IL-6 Immunoassay, R & D Systems).

[3] = test system: osteoclasts; test: Formation of osteoclasts from cells of collagen arthritis mouse leg (TRAP staining); format: cell-based; conditions: Compound (I) 0.5 to 20 μM, KN-93 0.3 to 5 μM; nine days; FIG. 5
Protocol: Effects of Compound (I) and KN-93 on the formation of osteoclasts were evaluated.
A mouse leg affected with developed collagen arthritis was removed and treated in an α-MEM culture medium (GIBCO, Inc.) containing 10% fetal bovine serum in the presence of dispase (Godo Shuzo) and collagenase S1 (Nitta Gelatin Inc.) at 37° C. for five to six hours and monodisperse cell suspended liquid was collected. This sample was centrifuged, rinsed by resuspension and subjected to the experiment. The cells were disseminated in 96-well plate in a ratio of 2×10^4 cells/well, an α-MEM medium containing the test compound was added thereto and incubated for nine days. After the incubation, osteoclasts were stained with a kit (Sigma, Inc.) for TRAP staining and the number of the osteoclasts per well was measured by microscopic observation. The TRAP staining was carried out in accordance with instructions attached to the kit.

[4] = test system: IκBα; test: Degradation of IκBα in stimulated T-lymphocytes (Western blotting); format: cell-based, mouse; conditions: Compound (I) 30 μM, KN-93 10 μM; EL-4 cells; FIG. 17
Protocol: Effects of Compound (I) and KN-93 on the degradation of IκBα when T-lymphocytes were stimulated with Phorbol 12-myristate 13-acetate (PMA) and Calcium Ionophore A23187 were evaluated.
EL-4 cells (mouse T-lymphocyte cell line) were cultured in Dulbecco's Modified Eagle Medium (DMEM: GIBCO, Inc.) containing 10% fetal bovine serum and subjected to the experiments. Cells subconfluently multiplied were collected by centrifugation and dispensed into Eppendorf tubes to be contained at 5×10^6 cells/tube. After Compound (I) (final 30 μM) or KN-93 (final 10 μM) was added and preincubated at 37° C. in a water bath, stimulation by PMA (final 125 ng/ml) and A23187 (final 1 μg/ml) was performed (total volume 500 μl). After incubated for 15 minutes or 30 minutes after the stimulation, 1 ml of an ice cold stop solution (1×PBS, 1 mM Na3VO4, 5 mM EDTA) was added to terminate the reaction. After centrifugation and rinsing, it was dissolved in TNE buffer (50 mMTris-HCl, 1% NP-40, 20 mM EDTA, 100 μg/ml PMSF, 30 μl/ml Aprotinin, 1 mM Na3VO4, 5 mM NaF, 12 mM β-glycerophosphate). After performing 12% SDS-PAGE, proteins were transferred onto a PVDF membrane and western blotting was performed with anti-IκBα antibody (C-21, Santa Cruz, Inc.).

[5] = test system: cyclin D1; test: Expression of cyclin D1 in bFGF stimulated fibroblasts (Western blotting); format: cell-based, mouse; conditions: Compound (I) 1.25 to 20 μM, KN-93 5 to 20 μM; L929 cells; FIG. 18
Protocol: (§1) Effects of Compound (I) and KN-93 on effect on the expression of cyclin D1 and the phosphorylation of Akt when fibroblasts were stimulated with basic fibroblast growth factor (bFGF) were evaluated.
(§2) L929 cells (mouse fibroblast cell line) were cultured in MEM-Earl medium (E-MEM: GIBCO, Inc.) containing 10% fetal bovine serum and subjected to the experiment. The cells were suspended in a serum-free E-MEM and cultured for 72 hours. An E-MEM medium containing the test substance was added and incubated for 1 hour, and an E-MEM medium containing recombinant human FGF basic (bFGF) as a stimulant was added and further incubated. The cells were lysed in a RIPA buffer and a total cell lysate was obtained. After performing SDS-PAGE, proteins were transferred onto a PVDF membrane and western blotting was performed with anti-cyclin antibody or anti-Akt antibody (both available from Santa Cruz, Inc.).

[6] = test system: Akt; test: Phosphorylation of Akt in bFGF stimulated fibroblasts (Western blotting); format: cell-based, mouse; conditions: Compound (I) 20 μM, KN-93 20 μM; L929 cells; FIG. 19
Protocol: as §1, §2

[7] = test system: adjuvant arthritis rats; conditions: reported in Patent Documents 3, 4 and Non-Patent Documents 3 to 5; cited from earlier work

T1 sequence (P11275 whole entry): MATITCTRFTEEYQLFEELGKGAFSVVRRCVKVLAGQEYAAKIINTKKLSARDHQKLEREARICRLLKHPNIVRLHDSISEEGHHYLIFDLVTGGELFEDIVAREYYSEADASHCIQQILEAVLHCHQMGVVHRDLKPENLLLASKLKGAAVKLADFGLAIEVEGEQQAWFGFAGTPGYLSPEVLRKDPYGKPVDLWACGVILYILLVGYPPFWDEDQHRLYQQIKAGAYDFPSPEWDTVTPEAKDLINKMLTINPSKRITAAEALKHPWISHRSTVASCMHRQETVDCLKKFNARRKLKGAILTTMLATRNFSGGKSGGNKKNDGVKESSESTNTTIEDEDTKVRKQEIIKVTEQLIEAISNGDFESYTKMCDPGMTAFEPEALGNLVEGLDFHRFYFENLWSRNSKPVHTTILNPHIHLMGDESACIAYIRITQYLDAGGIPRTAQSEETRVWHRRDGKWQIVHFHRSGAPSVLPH

| Structure (SMILES) | Inhibition rate (%) ([1]; Concentration 0.1 μm) | Inhibition rate (%) ([1]; Concentration 1 μm) | Inhibition rate (%) ([1]; Concentration 10 μm) | production of IL-6 [2] | formation of osteoclasts [3] | degradation of IκBα [4] | enhanced expression of cyclin D1 [5] | phosphorylation of Akt [6] | effects on adjuvant arthritis rats [7] |
| --- | --- | --- | --- | --- | --- | --- | --- | --- | --- |
| COc1ccc(S(=O)(=O)N(CCO)c2ccccc2CN(C)C/C=C/c2ccc(Cl)cc2)cc1 [KN-93, N-(2-[N-[4-chlorocinnamyl]-N-methylaminomethyl]phenyl)-N-(2-hydroxyethyl)-4-methoxybenzenesulfonamide, reference compound] | 25 | 58 | 77 | suppressed production of IL-6 dose-dependently | dose-dependently suppressed the formation of osteoclasts | suppressed the degradation of IκBα | suppressed the enhanced expression of cyclin D1 | suppressed the phosphorylation of Akt |  |
| C[C@@H](c1ccc(-c2ccccc2)c(F)c1)c1cc(/N=C(/N)N2CCOCC2)on1 [Compound (I), 3-[(1S)-1-(2-fluorobiphenyl-4-yl)ethyl]-5-{[amino(morpholin-4-yl)methylene]amino}isoxazole] | 39 | 47 | 85 | suppressed production of IL-6 dose-dependently | dose-dependently suppressed the formation of osteoclasts | suppressed the degradation of IκBα | suppressed the enhanced expression of cyclin D1 | suppressed the phosphorylation of Akt | anti-arthritis effects |
